Source: ChEMBL document CHEMBL5576100, “Genome-Driven Discovery of Antiviral Atralabdans A-C from the Soil-Dwelling Streptomyces atratus” (J Nat Prod, 2024)
Calls of active or inactive are those of the source. No cut-off for these calls is given here.

Experiments:
Pseudomonas sp. = test: Antimicrobial activity against Pseudomonas sp. assessed as zone of inhibition at 80 ug measured after 1 to 2 days by paper disk diffusion method; type: functional, organism-based; conditions: dose 80.0 µg, time 1-2 day
[1] = Cytotoxicity against Coxsackievirus B3 infected human Hep-2 cells assessed as reduction in cell viability measured after 48 hrs by MTT assay; type: toxicity, cell-based; conditions: Coxsackievirus B3 infected Hep-2 cells
Staphylococcus aureus [2] = test: Antimicrobial activity against Staphylococcus aureus assessed as zone of inhibition at 80 ug measured after 1 to 2 days by paper disk diffusion method; type: functional; conditions: time 1-2 day, read-out: IZ
[3] = Selectivity index, ratio of CC50 for human Hep-2 cells to EC50 for antiviral activity against Coxsackievirus B3 infected in human Hep-2 cells; type: toxicity, cell-based; conditions: read-out: Ratio CC50/EC50
Coxsackievirus B3 [4] = test: Antiviral activity against Coxsackievirus B3 infected in human Hep-2 cells assessed as protection against virus-induced apoptosis measured after 48 hrs by microscopic analysis; type: functional, organism-based
Coxsackievirus B3 [5] = test: Antiviral activity against Coxsackievirus B3 infected in human Hep-2 cells assessed as inhibition of virus-induced cytopathic effect measured after 48 hrs by MTT assay relative to control; type: functional
Coxsackievirus B3 [6] = test: Antiviral activity against Coxsackievirus B3 infected in human Hep-2 cells assessed as inhibition of virus-induced cytopathic effect measured after 48 hrs by MTT assay; type: functional, organism-based; conditions: Enterovirus B, HEp-2, 48 h
Micrococcus luteus = test: Antimicrobial activity against Micrococcus luteus assessed as zone of inhibition at 80 ug measured after 1 to 2 days by paper disk diffusion method; type: functional, organism-based; conditions: dose 80.0 µg, time 1-2 day
Serratia entomophila = test: Antimicrobial activity against Serratia entomophila DSM 12358 assessed as zone of inhibition at 80 ug measured after 1 to 2 days by paper disk diffusion method; type: functional, organism-based; conditions: dose 80.0 µg, time 1-2 day
Saccharomyces cerevisiae = test: Antimicrobial activity against Saccharomyces cerevisiae assessed as zone of inhibition at 80 ug measured after 1 to 2 days by paper disk diffusion method; type: functional, organism-based; conditions: dose 80.0 µg, time 1-2 day
Escherichia coli = test: Antimicrobial activity against Escherichia coli DH10B assessed as zone of inhibition at 80 ug measured after 1 to 2 days by paper disk diffusion method; type: functional, organism-based; conditions: dose 80.0 µg, time 1-2 day
Coxsackievirus B3 [7] = test: Antiviral activity against Coxsackievirus B3 infected in human Hep-2 cells assessed as protection against virus-induced pathological changes measured after 48 hrs by microscopic analysis; type: functional, organism-based
Staphylococcus aureus [8] = test: Potentiation of imipenem-induced antimicrobial activity against Staphylococcus aureus at 10 ug measured after 18 to 24 hrs in presence of 0.5 ug/ml imipenem by paper disk diffusion method; type: functional, organism-based; conditions: dose 10.0 µg, time 18-24 hrs
Staphylococcus aureus [9] = test: Antimicrobial activity against Staphylococcus aureus assessed as diameter of zone of inhibition at 0.5 ug/ml measured after 18 to 24 hrs by paper disk diffusion method; type: functional; conditions: time 18-24 hrs, read-out: DIZ
Staphylococcus aureus [10] = test: Antimicrobial activity against Staphylococcus aureus assessed as diameter of zone of inhibition at 0.25 ug/ml measured after 18 to 24 hrs by paper disk diffusion method; type: functional, organism-based; conditions: dose 0.25 µg/ml, time 18-24 hrs
Coxsackievirus B3 [11] = test: Antiviral activity against Coxsackievirus B3 infected in human Hep-2 cells assessed as log reduction in viral progeny yield measured after 48 hrs relative to control; type: functional

Row | Structure (SMILES) | inhibition zone (IZ) (Pseudomonas sp.) | CC50 at 48 h [1] [µM] | zone of inhibition at 80 µg/disc (Staphylococcus aureus [2]) [mm] | selectivity ratio [3] | Activity (Coxsackievirus B3 [4]) | Imax (Coxsackievirus B3 [5]) [%] | EC50 (Coxsackievirus B3 [6]) [µM] | inhibition zone (IZ) (Micrococcus luteus) | inhibition zone (IZ) (Serratia entomophila) | inhibition zone (IZ) (Saccharomyces cerevisiae) | inhibition zone (IZ) (Escherichia coli) | Activity (Coxsackievirus B3 [7]) | Activity (Staphylococcus aureus [8]) | zone of inhibition at 0.5 µg/mL (Staphylococcus aureus [9]) [mm] | diameter of the inhibition zone (DIZ) (Staphylococcus aureus [10]) | log(activity) (Coxsackievirus B3 [11])
1 | C=C[C@](C)(O)[C@H]1C[C@H]2C(=C)[C@@H]3C[C@H]4C(C)(C)CCC[C@]24[C@H]1O3 | inactive | 161 | ~1 | 3.8 | Active | 85.3 | 42.7 | inactive | inactive | inactive | inactive | Active | inactive | – | – | –
2 | NC(=O)c1ncn([C@@H]2O[C@H](CO)[C@@H](O)[C@H]2O)n1 [RIBAVIRIN] | – | 386 | – | 3.4 | – | – | 114 | – | – | – | – | – | – | – | – | –
3 | C[C@@H](O)[C@H]1C(=O)N2C(C(=O)O)=C(SCCNC=N)C[C@H]12 [IMIPENEM ANHYDROUS] | – | – | – | – | – | – | – | – | – | – | – | – | – | ~2 | inactive | –
4 | C=C[C@@](C)(O)[C@H]1C[C@H]2C(=C)[C@@H]3C[C@H]4C(C)(C)CCC[C@]24[C@H]1O3 | inactive | 168 | ~1 | 6.2 | Active | 91.2 | 27.2 | inactive | inactive | inactive | inactive | Active | inactive | – | – | ~4.5
5 | C=C[C@@](C)(O)[C@@H]1C[C@H]2C(=C)[C@@H]3C[C@H]4C(C)(C)CCC[C@]24[C@H]1O3 | inactive | 160 | ~1 | 2 | Active | 90.1 | 76.8 | inactive | inactive | inactive | inactive | Active | inactive | – | – | –
